According to US9212169B2, “Benzimidazole derivative and use thereof” (HYOGO COLLEGE OF MEDICINE, priority 2012, dated 2015):
Like-named read-outs stand apart in the source and are kept apart here.

What was measured:
[1] = molecular target: T1, silkworm recombinant PCA-1 (Homo sapiens, UniProt Q96Q83); assay: Evaluation of PCA-1 inhibitory activity (demethylation of 3-methyl cytosine-containing oligo DNA, real-time PCR); assay type: biochemical; settings: 37° C., 1 hr; for inhibition at 1 µM: test compound 1 μM; for inhibition at 10 µM: test compound 10 μM
T1 construct: made in house; host or cells: silkworm
T1 sequence (Q96Q83 1-286): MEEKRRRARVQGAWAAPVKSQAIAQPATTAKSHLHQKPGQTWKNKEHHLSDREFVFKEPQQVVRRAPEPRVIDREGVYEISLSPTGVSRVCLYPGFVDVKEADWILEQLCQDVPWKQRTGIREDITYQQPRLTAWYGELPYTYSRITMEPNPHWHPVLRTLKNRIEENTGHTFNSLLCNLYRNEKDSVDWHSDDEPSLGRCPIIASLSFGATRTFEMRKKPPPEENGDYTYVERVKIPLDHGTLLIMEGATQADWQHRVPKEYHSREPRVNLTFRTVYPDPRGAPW
Method: To an enzyme reaction solution (50 mM trishydrochloric acid buffer (pH 8.0), 2 mM ascorbic acid, 100 μM oxoglutaric acid, 40 μM ferric sulfate) containing 80 fmol 3-methyl cytosine-containing oligo DNA as a substrate were added a test compound (10 μM, 1 μM) and 4 ng silkworm recombinant PCA-1, and the mixture was incubated at 37° C. for 1 hr. After completion of the reaction, the enzyme reaction solution was 20-fold diluted with water to quench the reaction. Using 2 μL thereof, real-time PCR (Bio-Rad iQ SYBR Green Supermix) was performed in a 20 μL reaction system. The analytical curve was formed using a dilution series of the non-methylated oligoDNA. The primers used were forward primer 24 bases and reverse primer 22 bases. Reaction conditions: 95° C., 10 seconds→40 cycles of 95° C., 5 seconds, 61° C., 30 seconds, and 72° C., 15 seconds→95° C., 1 min→55° C., 1 min→55° C., 10 seconds, after which increased by 0.5° C. to 95° C. for 10 seconds→preserved at 25° C.
The degree of demethylation in the presence or absence of the test compound was compared and the inhibitory activity was evaluated.

[2] = tested on: DU145 (prostate cancer cell); assay: Cancer cell proliferation suppressive action, DU145 (WST-1); assay type: cell-based; settings: Homo sapiens, read-out: DU145 proliferation inhibitory activity (%)
Method: cell line used: DU145 (prostate cancer cell: Institute of Development, Aging and Cancer, Tohoku University, Cell Resource Center for Biomedical Research)
evaluation of scaffolding dependency growth suppressive action:
The cells were plated on a 96 well plate at 5×10^3 cells/well/90 μL, and cultured overnight. The test compound (10 μM) was added and, after culture for 48 hr, a 1:9 mixture of aqueous 1-methoxy-5-methylphenazinium methylsulfate (PMS) solution and 2-(4-iodophenyl)-3-(4-nitrophenyl)-5-(2,4-disulfophenyl)-2H-tetrazolium, monosodium salt (WST-1)/20 mM 4-(2-hydroxyethyl)-1-piperazineethanesulfonic acid (HEPES) solution (DOJIN) was added by 10 μL, and the absorbance was measured at 450 nm 2 hr later. As a control wavelength, 630 nm was used.

DU145 cell xenograft = assay: Antitumor action using prostate cancer xenograft model; assay type: in vivo, BALB/c nu/nu mouse; settings: subcutaneously administered, suspended in 0.5 w/v % carboxycellulose; tumor volume
Text: A prostate cancer xenograft model was produced as shown below.
DU145 cells (4×10^6 cells) were mixed with BD Matrigel Basememt Membrane Matrix High Concentration (Becton, Dickinson and Company), and subcutaneously transplanted to the back of BALB/c nu/nu mouse. After transplantation, the tumor was isolated when it reached a volume of about 200 mm^3, and subcutaneously transplanted into the back of a different BALB/c nu/nu mouse. This operation was repeated three times to generate a tumor derived from DU145 cells that grow stably. A model mouse for the evaluation of the compound was prepared by finely cutting the in vivo passaged tumor into about 10 mm^3, and subcutaneously transplanting same into the back of a BALB/c nu/nu mouse.
The compound of Example 1 was suspended in 0.5 w/v % sterile carboxycellulose (Wako Pure Chemical Industries, Ltd.), and subcutaneously administered to the back. The volume of the tumor was calculated using the formula of (long diameter)×(short diameter)^2×0.5.

Row | Compound | inhibition at 1 µM [1] [%] | inhibition at 10 µM [1] [%] | inhibition at 10 µM ([2]; DU-145, 48 h) [%] | antitumor action in a DU145 cell xenograft model (FIG. 1) (DU145 cell xenograft) | inhibition at 10 µM ([2]; DU-145, test compound 10 μM, culture for 48 hr) [%]
1 | Cc1nn(-c2nc3ccccc3[nH]2)c(O)c1Cc1ccc2ccccc2c1 [Example 19] | 38 | 76 | – | – | –
2 | Cc1ccc(-c2ccc3[nH]c(-n4nc(C)c(Cc5ccccc5)c4O)nc3c2)cc1 [Example 40] | 21 | 61 | – | – | –
3 | Cc1nn(-c2nc3ccccc3[nH]2)c(O)c1Cc1ccc(C(F)(F)F)cc1 [Example 24] | 61 | 67 | – | – | –
4 | COc1ccc(Cc2c(C)nn(-c3nc4ccccc4[nH]3)c2O)cc1 [Example 31] | 47 | 85 | – | – | –
5 | Cc1ccc2[nH]c(-n3nc(C)c(Cc4ccc(F)cc4)c3O)nc2c1 [Example 32] | 49 | 81 | – | – | –
6 | Cc1nn(-c2nc3ccccc3[nH]2)c(O)c1C [Example 13] | 19 | 76 | 22 | – | –
7 | Cc1nn(-c2nc3ccccc3[nH]2)c(O)c1Cc1ccccc1 [Example 14] | 35 | 80 | 45 | – | –
8 | Cc1ccc2[nH]c(-n3nc(C)c(-c4ccccc4)c3O)nc2c1 [Example 42] | 37 | 65 | – | – | –
9 | Cc1ccc2[nH]c(-n3nc(C)c(C)c3O)nc2c1 [Example 17] | 25 | 76 | – | – | –
10 | Cc1nn(-c2nc3cc(C(F)(F)F)ccc3[nH]2)c(O)c1Cc1ccccc1 [Example 4, 3-methyl-4-(phenylmethyl)-1-(5-trifluoromethyl-1H-benzimidazol-2-yl)-1H-pyrazol-5-ol] | 50 | 82 | – | – | –
11 | Cc1nn(-c2nc3cc(-c4ccc(Cl)cc4)ccc3[nH]2)c(O)c1Cc1ccccc1 [Example 35] | 25 | 77 | – | – | –
12 | Cc1ccc2[nH]c(-n3nc(C)c(Cc4ccccc4Cl)c3O)nc2c1 [Example 33] | 54 | 82 | – | – | –
13 | CCCCCCc1c(C)nn(-c2nc3cc(C)ccc3[nH]2)c1O [Example 45] | 43 | 81 | – | – | –
14 | Cc1nn(-c2nc3ccccc3[nH]2)c(O)c1-c1ccccc1 [Example 18] | 27 | 74 | – | – | –
15 | Cc1ccc2[nH]c(-n3nc(C)c(Cc4ccccc4)c3O)nc2c1 [Example 1, 1-(5-methyl-1H-benzimidazol-2-yl)-3-methyl-4-(phenylmethyl)-1H-pyrazol-5-ol] | 24 | 81 | – | antitumor action | 60
16 | Cc1nn(-c2nc3ccccc3[nH]2)c(O)c1Cc1ccc(F)cc1 [Example 25] | 39 | 68 | – | – | –
17 | Cc1nn(-c2nc3cc(-c4ccccc4)ccc3[nH]2)c(O)c1Cc1ccccc1 [Example 37] | 38 | 64 | – | – | –
18 | Cc1ccc2[nH]c(-n3nc(C)c(CC4CCCCC4)c3O)nc2c1 [Example 46] | 47 | 81 | – | – | –
19 | COc1ccc(Cc2c(C)nn(-c3nc4cc(C)ccc4[nH]3)c2O)cc1 [Example 34] | 49 | 80 | – | – | –
20 | Cc1nn(-c2nc3cc(C(C)(C)C)ccc3[nH]2)c(O)c1Cc1ccccc1 [Example 5, 1-[5-(1,1-dimethylethyl)-1H-benzimidazol-2-yl]-3-methyl-4-(phenylmethyl)-1H-pyrazol-5-ol] | 50 | 91 | – | – | –
21 | Cc1ccc2[nH]c(-n3nc(C)c(Cc4ccc5ccccc5c4)c3O)nc2c1 [Example 11, 3-methyl-1-(5-methyl-1H-benzimidazol-2-yl)-4-(2-naphthylmethyl)-1H-pyrazol-5-ol] | 36 | 82 | – | – | –
22 | Cc1cc(O)n(-c2nc3ccccc3[nH]2)n1 [Example 15] | -1 | 76 | – | – | –
23 | Cc1nn(-c2nc3cc(Cl)ccc3[nH]2)c(O)c1Cc1ccccc1 [Example 3, 1-(5-chloro-1H-benzimidazol-2-yl)-3-methyl-4-(phenylmethyl)-1H-pyrazol-5-ol] | 21 | 60 | – | – | –
